{"source": "PubChem BioAssay AID2060625", "about": "(Molecular Pharmacology Branch, DTP, NCI, 2025)", "tested_on": "186277-243-T-J2-PDC spheroids with HUVEC/MSC, viability", "assay": "Anticancer human tumor 186277-243-T-J2-PDC patient-derived colon adenocarcinoma cell line growth inhibition [CLK]", "details": "for viability, T/C: stronger effect = lower value", "excerpt": "A high-throughput screen of multi-cell type tumor spheroids was designed to identify active combinations of […] and targeted small molecules. Complex spheroids include a stromal component modeled by human endothelial cells (HUVEC) and fibroblasts modeled by human mesenchymal stem cells (MSCs). The concentration ranges selected for each drug and investigational agent were based upon clinically achievable concentrations if the clinical Cmax of the agent was known.\nCompounds. The drugs and investigational agents: cirtuvivint (SM08502; NSC835563), CC-671 (NSC850746), vemurafenib (NSC761431), tapotoclax (NSC804041), sotorasib (NSC818433), adagrasib (NSC831453), MRTX-1133 (NSC836407), BAY2416964 (NSC825713), copanlisib (NSC816437), inavolisib (NSC800729), abemaciclib (NSC768073), osimertinib (NSC779217), entinostat (NSC756642), eltanexor (KPT-8602, NSC794443), venetoclax (NSC766270), ceralasertib (NSC777638), bortezomib (NSC756655), olaparib (NSC753686), talazoparib (NSC767125), alisertib (NSC759677), peposertib (NSC802822), gemcitabine (NSC613327), 5-fluorouracil (NSC19893), SN-38 (NSC673596), oxaliplatin (NSC266046), paclitaxel (NSC125973), and doxorubicin (NSC123127), were obtained from the National Cancer Institute (NCI) Developmental Therapeutics Program Chemical Repository. The FDA-approved anticancer drug set is available from the Developmental Therapeutics Program at https://dtp.cancer.gov/organization/dscb/obtaining/available plates.htm. […] The stock solutions were prepared in dimethyl sulfoxide (DMSO, Sigma-Aldrich, St. Louis, MO, cat. D2650), except for the platinum complexes which were prepared in saline (Quality Biological, Gaithersburg, MD, cat. 114-055-101), at 800-fold the tested concentration and stored at -70 degrees C prior to their use. All drugs and investigational agents were tested over a range starting from a high concentration at or near the clinical Cmax and decreasing in half-log increments. If the clinical Cmax for an agent had not been determined, the highest concentration tested was 10 microM.\nCell Culture. All cells were maintained in an incubator at 37 degrees C and 5% CO2 with 95% humidity. The PDC lines were cultured according to standard operating procedures established by the NCI PDMR. Briefly, all PDCs were thawed and cultured in Matrigel-coated flasks prepared with a working solution of 1X Ham's F-12 nutrient mix, without supplementation (Invitrogen, Waltham, MA, cat. 11765054), 100 U/mL penicillin-streptomycin (Invitrogen, cat. 15140122), and 2.5% Matrigel (Corning Inc., Corning, NY, cat. 354248) for the first three passages. The 947758-054-R-J2-PDC line was cultured in 6B/Colon 1A media, which includes advanced DMEM/F-12 (Thermo Fisher Scientific, cat. 12634028), 10 mM HEPES (Thermo Fisher Scientific, cat. 15630080), 1X GlutaMAX supplement (Thermo Fisher Scientific, cat. 35050061), 0.1 mg/mL primocin (InvivoGen, cat. ant-pm-2), 10% defined fetal bovine serum, heat inactivated (HyClone Laboratories Inc., cat. SH30070.03HI), 1.25 mM N-Acetyl-L-cysteine (Sigma-Aldrich, cat. A9165), 10 mM nicotinamide (Sigma-Aldrich, cat. N0636), 1X B-27 supplement (Thermo Fisher Scientific, cat. 17504044), 1X N-2 supplement (Thermo Fisher Scientific, cat. 17502048), and 10 microM Y-27632 dihydrochloride (Tocris Bioscience, cat. 1254). The 876862-298-R-J1-PDC was cultured in 6E media, which includes all 6B/Colon 1A media components plus 50% L-WRN conditioned media (ATCC, cat. CRL-3276), 50 ng/mL recombinant human EGF recombinant protein (hEGF; Thermo Fisher Scientific, cat. PHG0311), 10 ng/mL recombinant human fibroblast growth factor 10 (hGFG-10; PeproTech, cat. 100-26), 1 ng/mL recombinant human fibroblast growth factor 2 (hFGF-2; PeproTech, cat. 100-18B), and 1 µM prostaglandin E2 (PGE2; Tocris, cat. 2296). The 227483-062-R1-J1-PDC line was cultured in Panc media, containing all 6E components except hFGF-2, with the addition of 500 nM SB-431542 (Selleckchem, cat. S1067) and 10 nM gastrin (Tocris, cat. 3006). […]", "note": "Several values for one entry are separate records, joined by “and”; a condition that tells them apart may be missing. Identical values can stand only once.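 Note: compound exposure lasted seven days before readout.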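 Throughout, for viability, T/C: 100% = DMSO vehicle control wells.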", "data": [{"smiles": "C=C(F)C(=O)N1CCN(c2nc(OCC3CCCN3C)nc3c2CCN(c2cccc4cccc(Cl)c24)C3)CC1CC#N", "note": "(centres undefined) + CNC(=O)c1ccc(Nc2nc(OC3CCCC3)c3c(-c4ccc5nc(C)oc5c4)c[nH]c3n2)c(OC)c1", "values": [{"measurement": "IC50", "setting": "curve of first compound, second compound 0.0316 µM", "value": 5.73, "unit": "µM"}, {"measurement": "IC50", "setting": "curve of first compound, second compound 0.1 µM", "value": 4.22, "unit": "µM"}, {"measurement": "IC50", "setting": "curve of first compound, second compound 0.316 µM", "value": "< 0.0316", "unit": "µM"}, {"measurement": "IC50", "setting": "curve of first compound, second compound 1 µM", "value": "< 0.0316", "unit": "µM"}, {"measurement": "IC50", "setting": "curve of first compound, second compound 3.16 µM", "value": "< 0.0316", "unit": "µM"}, {"measurement": "IC50", "setting": "curve of first compound, second compound 10 µM", "value": "< 0.0316", "unit": "µM"}, {"measurement": "viability, T/C", "setting": "second compound 0.0316 µM, first compound 0.0316 µM", "value": 98, "unit": "%"}, {"measurement": "viability, T/C", "setting": "second compound 0.0316 µM, first compound 0.1 µM", "value": 96.1, "unit": "%"}, {"measurement": "viability, T/C", "setting": "second compound 0.0316 µM, first compound 0.316 µM", "value": 99.2, "unit": "%"}, {"measurement": "viability, T/C", "setting": "second compound 0.0316 µM, first compound 1 µM", "value": 93.8, "unit": "%"}, {"measurement": "viability, T/C", "setting": "second compound 0.0316 µM, first compound 3.16 µM", "value": 114, "unit": "%"}, {"measurement": "viability, T/C", "setting": "second compound 0.0316 µM, first compound 10 µM", "value": 3.01, "unit": "%"}, {"measurement": "viability, T/C", "setting": "second compound 0.1 µM, first compound 0.0316 µM", "value": 68.4, "unit": "%"}, {"measurement": "viability, T/C", "setting": "second compound 0.1 µM, first compound 0.1 µM", "value": 70.6, "unit": "%"}, {"measurement": "viability, T/C", "setting": "second compound 0.1 µM, first compound 0.316 µM", "value": 69.8, "unit": "%"}, {"measurement": "viability, T/C", "setting": "second compound 0.1 µM, first compound 1 µM", "value": 61.2, "unit": "%"}, {"measurement": "viability, T/C", "setting": "second compound 0.1 µM, first compound 3.16 µM", "value": 65.9, "unit": "%"}, {"measurement": "viability, T/C", "setting": "second compound 0.1 µM, first compound 10 µM", "value": 2.67, "unit": "%"}, {"measurement": "viability, T/C", "setting": "second compound 0.316 µM, first compound 0.0316 µM", "value": 45.1, "unit": "%"}, {"measurement": "viability, T/C", "setting": "second compound 0.316 µM, first compound 0.1 µM", "value": 48.2, "unit": "%"}, {"measurement": "viability, T/C", "setting": "second compound 0.316 µM, first compound 0.316 µM", "value": 42.7, "unit": "%"}, {"measurement": "viability, T/C", "setting": "second compound 0.316 µM, first compound 1 µM", "value": 46, "unit": "%"}, {"measurement": "viability, T/C", "setting": "second compound 0.316 µM, first compound 3.16 µM", "value": 48.1, "unit": "%"}, {"measurement": "viability, T/C", "setting": "second compound 0.316 µM, first compound 10 µM", "value": 0.4, "unit": "%"}, {"measurement": "viability, T/C", "setting": "second compound 1 µM, first compound 0.0316 µM", "value": 36, "unit": "%"}, {"measurement": "viability, T/C", "setting": "second compound 1 µM, first compound 0.1 µM", "value": 39.8, "unit": "%"}, {"measurement": "viability, T/C", "setting": "second compound 1 µM, first compound 0.316 µM", "value": 34.5, "unit": "%"}, {"measurement": "viability, T/C", "setting": "second compound 1 µM, first compound 1 µM", "value": 35.9, "unit": "%"}, {"measurement": "viability, T/C", "setting": "second compound 1 µM, first compound 3.16 µM", "value": 36.7, "unit": "%"}, {"measurement": "viability, T/C", "setting": "second compound 1 µM, first compound 10 µM", "value": 1.8, "unit": "%"}, {"measurement": "viability, T/C", "setting": "second compound 3.16 µM, first compound 0.0316 µM", "value": 37.3, "unit": "%"}, {"measurement": "viability, T/C", "setting": "second compound 3.16 µM, first compound 0.1 µM", "value": 35.2, "unit": "%"}, {"measurement": "viability, T/C", "setting": "second compound 3.16 µM, first compound 0.316 µM", "value": 32.3, "unit": "%"}, {"measurement": "viability, T/C", "setting": "second compound 3.16 µM, first compound 1 µM", "value": 36.7, "unit": "%"}, {"measurement": "viability, T/C", "setting": "second compound 3.16 µM, first compound 3.16 µM", "value": 34.1, "unit": "%"}, {"measurement": "viability, T/C", "setting": "second compound 3.16 µM, first compound 10 µM", "value": 0.54, "unit": "%"}, {"measurement": "viability, T/C", "setting": "second compound 10 µM, first compound 0.0316 µM", "value": 37.3, "unit": "%"}, {"measurement": "viability, T/C", "setting": "second compound 10 µM, first compound 0.1 µM", "value": 35.4, "unit": "%"}, {"measurement": "viability, T/C", "setting": "second compound 10 µM, first compound 0.316 µM", "value": 37.9, "unit": "%"}, {"measurement": "viability, T/C", "setting": "second compound 10 µM, first compound 1 µM", "value": 38, "unit": "%"}, {"measurement": "viability, T/C", "setting": "second compound 10 µM, first compound 3.16 µM", "value": 27.1, "unit": "%"}, {"measurement": "viability, T/C", "setting": "second compound 10 µM, first compound 10 µM", "value": 0.4, "unit": "%"}]}, {"smiles": "CCCS(=O)(=O)Nc1ccc(F)c(C(=O)c2c[nH]c3ncc(-c4ccc(Cl)cc4)cc23)c1F", "values": [{"measurement": "viability, T/C", "setting": "compound 0.0316 µM", "value": "97.7% and 105%"}, {"measurement": "viability, T/C", "setting": "compound 0.1 µM", "value": "87.2% and 89.4%"}, {"measurement": "viability, T/C", "setting": "compound 0.316 µM", "value": "113% and 109%"}, {"measurement": "viability, T/C", "setting": "compound 1 µM", "value": "104% and 88.5%"}, {"measurement": "viability, T/C", "setting": "compound 3.16 µM", "value": "120% and 94%"}, {"measurement": "viability, T/C", "setting": "compound 10 µM", "value": "82.3% and 88%"}, {"measurement": "IC50", "setting": "curve of compound", "value": "> 10", "unit": "µM"}]}]}
